Key:
[1] = target: T1, aminopeptidase N (APN), recombinant human enzyme (Homo sapiens, UniProt P15144); assay: Neutral aminopeptidase (APN) assay, substrate L-Ala-β-NA; assay type: biochemical; details: APN-rh 50 ng/mL, substrate 50 μM, 50 mM Tris pH 7.4, 37° C.; read-out: APN (nM), inhibitory power Ki
T1 construct: purchased R&D System
Description: (§1) The claimed inhibitors were tested on different Zn^2+ peptidases representative of this family of enzymes, capable of inhibiting them, such as type 1 neprilysin (E.C.3.4.24.11, NEP-1), neutral aminopeptidase (E.C.3.4.11.2, APN) and LTA4H.
(§2) The assays are carried out on […] in the presence of fluorigenic substrates specific for each enzyme.
(§3) Generally speaking, the inhibitors are pre-incubated, in increasing concentrations, with the enzyme for 10 min, at 37° C. The substrate is then added and the mixture is incubated for 30 to 60 min at 37° C. The reaction is stopped at 4° C. and the reading of the fluorescence emitted is done by reading the Berthold Twinkle LS970B plate. An inhibition curve is then plotted as a function of the concentration of inhibitor using GraphPad software, then the Ki is determined from the Cheng Prusoff formula: Ki=IC50/(1+(S/Km)).
The measurement of the inhibition of aminopeptidase N (APN) is carried out by use of the substrate L-Ala↓β-NA (50 μM, Sigma Aldrich). The inhibitory powers are determined by using recombinant human enzyme (rh) (50 ng/mL; R&D System). Increasing concentrations (from 10^−10 to 10^−3 M) of inhibitors are pre-incubated for 30 min at 37° C. with APN-rh in 50 mM Tris buffer, pH 7.4. The substrate is next added and the incubation is continued for 30 min at 37° C. The reaction is stopped by placing the plate in ice for 10 min. The reading of the emitted fluorescence is measured in a fluorimeter at λex=340 nm, λem=405 nm.

[2] = target: T2, Neprilysin (NEP), purified from rabbit kidney (Oryctolagus cuniculus, UniProt P08049); assay: Neprilysin (NEP) assay, fluorigenic substrate Dansyl-Gly-(NO2)Phe-β-Ala; assay type: biochemical; details: rabbit kidney NEP 200 ng/mL, substrate 20 μM, 50 mM Tris pH 7.4, 37° C.; read-out: NEP (nM), inhibitory power Ki
T2 construct: Neprilysin, purified from rabbit kidney; from tissue; host or cells: rabbit kidney
T2 sequence (P08049 1-750): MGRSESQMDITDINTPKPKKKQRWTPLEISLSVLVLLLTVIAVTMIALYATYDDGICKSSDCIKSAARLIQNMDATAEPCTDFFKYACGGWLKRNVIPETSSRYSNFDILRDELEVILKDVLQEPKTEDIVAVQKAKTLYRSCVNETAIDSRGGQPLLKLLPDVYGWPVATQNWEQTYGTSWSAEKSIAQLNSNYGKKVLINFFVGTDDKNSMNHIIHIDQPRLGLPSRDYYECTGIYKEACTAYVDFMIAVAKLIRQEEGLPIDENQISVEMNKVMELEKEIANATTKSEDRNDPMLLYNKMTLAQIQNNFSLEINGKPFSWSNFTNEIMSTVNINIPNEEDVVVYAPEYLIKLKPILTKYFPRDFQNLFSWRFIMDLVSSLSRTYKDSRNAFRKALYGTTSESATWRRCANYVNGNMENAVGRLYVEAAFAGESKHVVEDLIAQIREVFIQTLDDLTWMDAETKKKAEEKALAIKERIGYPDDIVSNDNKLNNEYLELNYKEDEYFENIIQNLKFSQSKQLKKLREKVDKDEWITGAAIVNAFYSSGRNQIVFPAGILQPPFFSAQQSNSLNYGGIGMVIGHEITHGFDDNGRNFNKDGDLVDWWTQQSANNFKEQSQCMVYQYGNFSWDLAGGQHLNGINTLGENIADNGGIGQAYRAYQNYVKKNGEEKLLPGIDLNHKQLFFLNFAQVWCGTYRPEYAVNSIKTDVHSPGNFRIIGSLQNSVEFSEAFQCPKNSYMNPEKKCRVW
Description: as §1, §2, §3
Neprilysin, purified from rabbit kidney (Aubry M et al. (1987), Biochem Cell Biol 65, 398-404), is used at final 200 ng/mL in 50 mM Tris buffer pH 7.4. The substrate, Dansyl-Gly-(NO2)Phe-β-Ala (Goudreau N et al. (1994), Anal Biochem, 219, 87-95) (Km=37 μM), is dissolved in ethanol and is used at final 20 μM. Increasing concentrations (from 10^−10 to 10^−3 M) of inhibitors are pre-incubated for 15 min at 37° C. with NEP in 50 mM Tris buffer, pH 7.4. The substrate is next added and the incubation is continued for 60 min. The reaction is stopped by placing the plate in ice for 10 min. The reading of the fluorescence emitted is carried out in a fluorimeter at λex=355 nm, λem=535 nm.

LTA4H = target: T3, LTA4H (Homo sapiens, UniProt P09960); assay: LTA4 hydrolase assay, substrate (L)-Ala-β-naphthylamide; assay type: biochemical; details: recombinant enzyme 0.6 μg/mL, substrate 1 mM, 50 mM Tris HCl pH 7.4, 100 mM NaCl, 37° C.; read-out: LTA4H (nM), inhibitory power Ki
T3 sequence (P09960 1-611): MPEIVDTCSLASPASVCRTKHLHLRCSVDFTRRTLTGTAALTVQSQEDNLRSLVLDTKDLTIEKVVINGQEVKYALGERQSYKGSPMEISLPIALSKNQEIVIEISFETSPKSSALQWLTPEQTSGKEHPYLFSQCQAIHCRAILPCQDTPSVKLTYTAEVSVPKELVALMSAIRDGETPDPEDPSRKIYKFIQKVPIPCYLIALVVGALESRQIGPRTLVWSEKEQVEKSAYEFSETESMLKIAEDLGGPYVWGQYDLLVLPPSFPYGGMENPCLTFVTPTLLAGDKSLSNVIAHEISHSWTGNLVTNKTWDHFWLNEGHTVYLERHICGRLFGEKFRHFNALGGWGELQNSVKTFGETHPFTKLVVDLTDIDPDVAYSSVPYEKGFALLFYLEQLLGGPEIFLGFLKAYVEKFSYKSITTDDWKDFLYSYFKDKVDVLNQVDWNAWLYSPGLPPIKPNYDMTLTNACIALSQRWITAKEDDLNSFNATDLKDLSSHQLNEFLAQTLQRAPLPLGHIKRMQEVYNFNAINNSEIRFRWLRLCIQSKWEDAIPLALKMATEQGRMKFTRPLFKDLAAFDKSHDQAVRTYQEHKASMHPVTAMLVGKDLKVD
Description: as §1, §2, §3
To determine the Ki values of the different inhibitors with regard to LTA4H, 0.6 μg/mL of recombinant enzyme were incubated beforehand for 30 minutes at 37° C. in 50 mM Tris HCl, pH 7.4, 100 mM NaCl, with increasing concentrations of inhibitor (from 10^−10 M to 10^−4 M of final concentration). The fluorescent substrate (L)-Ala-β-naphthylamide (1 mM) is added in a final volume of 100 μL and is incubated at 37° C. for 15 minutes. The fluorescence values are measured on a Berthold Twinkle LB 970 (λex=340 nm, λem=405 nm, energy of the lamp 10000). Samples containing 0% hydrolysis were obtained by adding the substrate to the buffer and samples having a relative activity of 100% were prepared without inhibitor. The percentage cleavage was evaluated and compared with a relative activity of 100%, and the IC50 values were determined as a consequence. The Ki values of the inhibitors (average of at least three double independent assays) were calculated using the equation Ki=IC50/(1+[S]/Km).

male OF1 mice = assay: Hot plate test on mice, intravenous administration; assay type: in vivo; details: for analgesic response: mice

T1 sequence (P15144 whole entry): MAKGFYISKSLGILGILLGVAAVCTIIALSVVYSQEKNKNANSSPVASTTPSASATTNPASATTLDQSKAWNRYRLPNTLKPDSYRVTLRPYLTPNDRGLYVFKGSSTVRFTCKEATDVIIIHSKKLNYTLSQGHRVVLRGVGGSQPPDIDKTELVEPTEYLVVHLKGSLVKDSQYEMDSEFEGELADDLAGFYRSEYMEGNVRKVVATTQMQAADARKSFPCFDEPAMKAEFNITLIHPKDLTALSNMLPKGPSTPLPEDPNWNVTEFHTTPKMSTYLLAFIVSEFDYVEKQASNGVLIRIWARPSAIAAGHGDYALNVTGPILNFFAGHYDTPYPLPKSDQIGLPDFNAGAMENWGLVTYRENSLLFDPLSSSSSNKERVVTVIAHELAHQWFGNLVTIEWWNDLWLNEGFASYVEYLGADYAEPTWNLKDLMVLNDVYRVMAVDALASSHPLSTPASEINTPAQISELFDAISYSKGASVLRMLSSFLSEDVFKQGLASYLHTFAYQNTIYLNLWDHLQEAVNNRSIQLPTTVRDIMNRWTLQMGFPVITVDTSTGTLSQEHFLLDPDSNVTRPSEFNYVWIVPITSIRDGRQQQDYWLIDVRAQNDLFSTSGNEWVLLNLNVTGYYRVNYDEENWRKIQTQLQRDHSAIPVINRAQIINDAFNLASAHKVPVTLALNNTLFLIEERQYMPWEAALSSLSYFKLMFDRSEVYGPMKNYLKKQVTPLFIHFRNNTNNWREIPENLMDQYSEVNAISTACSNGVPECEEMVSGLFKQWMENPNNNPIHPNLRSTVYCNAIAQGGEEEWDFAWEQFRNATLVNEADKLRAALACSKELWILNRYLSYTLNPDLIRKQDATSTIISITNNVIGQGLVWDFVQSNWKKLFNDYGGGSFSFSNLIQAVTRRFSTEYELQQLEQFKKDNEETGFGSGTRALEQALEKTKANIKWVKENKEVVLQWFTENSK

SMILES	Ki [1] [nM]	Ki [2] [nM]	Ki (LTA4H) [nM]	analgesic response (male OF1 mice; Ib-1 10 mg/kg in association with THC 0.375 mg/kg, intravenous coadministration) [%]	analgesic response (male OF1 mice; compound Ib-1 alone, 10 mg/kg intravenous, vehicle EtOH/Tween 80/Water (1/1/8)) [%]	analgesic effect of the association (in words) (male OF1 mice; intravenous association of THC and Ib-1 at inactive doses, 10 min after injection, male OF1 mice)	analgesic response (male OF1 mice; THC alone, 0.375 mg/kg intravenous) [%]
C[C@H](NC(=O)[C@H](Cc1ccccc1)CN(O)C=O)C(=O)O [Ia-1, (S)-2-((R)-2-benzyl-3-(N-hydroxyformamido)propanamido) propanoic Acid]	143 ± 9	3.3 ± 0.7	7.5 ± 0.4	–	–	–	–
C[C@H](NC(=O)[C@H](Cc1ccc(-c2ccccc2)cc1)CN(O)C=O)C(=O)O	86 ± 8	0.08 ± 0.01	6.1 ± 0.7	–	–	–	–
O=CN(O)C[C@H](Cc1ccccc1)C(=O)N[C@@H](Cc1ccccc1)C(=O)O [Ib-2, (S)-2-((S)-2-benzyl-3-(N-hydroxyformamido)propanamido)-3-phenylpropanoic Acid]	> 10000	23.1 ± 1.1	–	–	–	–	–
C[C@H](NC(=O)[C@@H](Cc1ccc(-c2ccccc2)cc1)CN(O)C=O)C(=O)O	817 ± 80	44.1 ± 2.2	> 10000	–	–	–	–
O=CN(O)C[C@@H](Cc1ccccc1)C(=O)N[C@H](CC(=O)O)Cc1ccccc1 [Ic-1, (S)-3-((R)-2-benzyl-3-(N-hydroxyformamido)propanamido)-4-phenyl butanoic Acid]	12 ± 1.7	6.3 ± 0.3	443 ± 75	–	–	–	–
O=CN(O)C[C@@H](Cc1ccccc1)C(=O)N[C@@H](Cc1ccccc1)C(=O)O [Ib-1, (S)-2-((R)-2-benzyl-3-(N-hydroxyformamido)propanamido)-3-phenylpropanoic Acid]	24 ± 0.4	0.5 ± 0.1	26 ± 2	65	10	considerable synergic analgesic effect	–
CCCCCc1cc(O)c2c(c1)OC(C)(C)[C@@H]1CCC(C)=C[C@@H]21 [THC, reference compound]	–	–	–	–	–	–	12
C[C@H](NC(=O)[C@@H](Cc1ccccc1)CN(O)C=O)C(=O)O [Ia-2, (S)-2-((S)-2-benzyl-3-(N-hydroxyformamido)propanamido) propanoic Acid]	> 10000	17.7 ± 0.9	–	–	–	–	–
